The text below walks through data of US11512097B2, “Heterocyclic compounds as Delta-5 desaturase inhibitors and methods of use” (Amgen Inc., priority 2019, dated 2022).

The term IC50 denotes the concentration that inhibits the measured activity by half.

For one experiment, the target named is T1, Delta-5-Desaturase (D5D) (Mus musculus, UniProt Q920L1).
T1 construct: tissue Jackson Laboratories strain #3800050; host or cells: whole animal (DIO mice)
T1 sequence (Q920L1 1-447): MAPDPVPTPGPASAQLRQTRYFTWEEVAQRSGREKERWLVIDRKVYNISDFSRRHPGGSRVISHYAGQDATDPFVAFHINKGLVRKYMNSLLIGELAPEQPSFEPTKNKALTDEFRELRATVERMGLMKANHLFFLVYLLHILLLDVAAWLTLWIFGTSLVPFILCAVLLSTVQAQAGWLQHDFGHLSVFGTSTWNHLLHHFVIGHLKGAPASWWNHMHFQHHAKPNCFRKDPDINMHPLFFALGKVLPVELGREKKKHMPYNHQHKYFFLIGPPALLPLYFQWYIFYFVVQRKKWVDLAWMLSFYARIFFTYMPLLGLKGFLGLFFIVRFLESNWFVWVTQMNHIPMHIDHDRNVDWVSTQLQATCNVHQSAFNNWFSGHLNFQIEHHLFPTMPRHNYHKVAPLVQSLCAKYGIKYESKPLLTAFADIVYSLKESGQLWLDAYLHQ
The experiment in a line: In vivo measurement of Delta-5-Desaturase inhibitory activity (plasma AA/DGLA ratio in DIO mice). The following applies: single oral dose 30 mg/kg, relative to vehicle group. Here is the method:
In Vivo Measurement of Delta-5-Desaturase Inhibitory Activity
Diet-induced obese (DIO; Jackson Laboratories strain #[…]) mice were used to screen for pharmacodynamic (PD) activity of test compounds. Generally, 14 to 24 week old DIO mice, were administered test compounds formulated in the vehicle of 2% hydroxypropyl methylcellulose (HPMC) and 1% Tween80. Animals were dosed on body weight by oral gavage with a single dose (30 mg/kg) for PD studies. Necropsy included plasma collection for PUFA analysis. 10 μl of plasma or standards diluted in surrogate matrix (65 g/l bovine serum albumin in Dulbecco's phosphate-buffered saline) were mixed with 10 μl of an internal standard (100 μM alpha-linolenic acid-d14 (ALA-d14, Cayman Chemical)) in a 96 well plate. 100 μl of 2N NAOH was added to the mixture for subsequent saponification at 65° C. for 1 hour. The mixture was then acidified with 50 μl of formic acid followed by two consecutive hexane extractions. Hexane (500 μl) was added and the mixture thoroughly mixed by vortexing, followed by centrifugation at 4,000 rpm for 15 min. The hexane phase was transferred to a new 1 ml 96 well plate and the remaining aqueous layer was extracted with hexane. The organic extracts were combined and the solvent was removed by placing the plate under nitrogen gas at 55° C. 250 μl of 90% methanol was added to the plate followed by vortexing for 2 minutes. 200 μl of the samples were transferred to a new 96 well polypropylene plate. The samples were analyzed on a LC-MS/MS for the following PUFAs: arachidonic acid (AA), dihomo-gamma-linolenic acid (DGLA), with ALA-d14 as the internal standard. Description of the LC-MS/MS method: 5 μl of sample was injected onto a Poroshell 120 EC-C18 3.0×50 mm, 1.9 μm id column. […] The PUFA peak areas were quantified by using the SCIEX Analyst software. […] The relative decrease of the AA/DGLA ratio of the test compound administered group relative to the vehicle administered group was calculated and used as an index for the degree of D5D inhibition. […]

Experiment [1] deals with T2, Delta-5-Desaturase (D5D), membrane preparations of D5D-overexpressing HEK293 6E cells (Homo sapiens, UniProt O60427).
T2 construct: expressed in transfected cells; host or cells: HEK293 6E cells (membrane preparation)
Put plainly: In vitro measurement of Delta-5-Desaturase inhibitory activity using DGLA-CoA and Arachidonyl-CoA mass spectrometric assays. The format is biochemical. The following applies: D5D membrane 10 μg/mL, one-hour incubation, average of at least two independent runs. The method, boiled down:
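Substrate mix (0.01 mM DGLA with NADH, ATP, coenzyme A) was incubated 1 h at room temperature with HEK293 6E D5D membranes at 10 μg/mL final, pH 7.5. Negative-mode SPE-MS/MS monitored DGLA-CoA (m/z 526.6) and arachidonyl-CoA (m/z 525.6). Inhibition normalised to DMSO and no-enzyme wells gave IC50s, mean of ≥2 runs.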

Experiment [2] has as its system Diet-Induced Obese (DIO) mice. The experiment in a line: Assessment of D5D inhibitor in Diet-Induced Obese (DIO) mice. In kind it is in vivo, Male C57BL/6J DIO mice. The following applies: for Fat mass / Lean mass: day 22, EchoMRI; for Blood glucose: day 25, 4 hour fasted; for AA / Cholesterol / DGLA / Insulin / LDL cholesterol / Triglycerides: day 25, 4 hour fasted plasma; for Body weight / Liver weights / epididymal WAT / inguinal WAT: day 27. An excerpt: Assessment of D5D Inhibitor in Diet-Induced Obese (DIO) Mice
Male C57BL/6J DIO mice (Jackson Laboratories, Stock No.: 380050) were fed high-fat diet (Research Diets, Inc., D12492) for 12 weeks. All animals were given free access to water and chow. Animals were acclimated to per os dosing for 3 days prior to the start of the experiment. Animals were randomized on body weight, fat mass, lean mass, and blood glucose concentrations in to groups of 8 to 10 animals per group. Animals were twice daily dosed per os with either: vehicle (2% hydroxypropyl methylcellulose and 1% tween 80 in water), Example 2 at 10 mg/kg, or 30 mg/kg (formulated in 2% hydroxypropyl methylcellulose and 1% tween 80 in water), or Example 45 at 3 mg/kg, or 10 mg/kg (formulated in 2% hydroxypropyl methylcellulose and 1% tween 80 in water). Three-day average (Example 2) or daily average (Example 45) food consumption was measured at the indicated times as shown in Table 17 and Table 18. Body composition (EchoMRI) was determined on day 78 for Example 2 and day 22 for Example 45. For Example 2, a non-fasted blood collection was performed on day 81; blood glucose was immediately measured, and plasma samples created from the remaining blood and used to measure DGLA and AA concentrations. On day 84, a 4-hour fasted blood collection was performed, and plasma samples were created from the blood and used to measure cholesterol, triglycerides, low-density lipoprotein (LDL) cholesterol, insulin, and adipokine (adiponectin, leptin, and resistin) levels. For Example 45, 4 hour fasted blood samples were collected on day 25 and blood glucose was measured immediately and the plasma samples created from the remaining blood were used to measure cholesterol, triglycerides, LDL cholesterol, insulin, DGLA and AA concentration. At the end of the studies, liver, epididymal white adipose tissue, inguinal white adipose tissue, mesenteric (only Example 2) white adipose tissue weights were recorded. Data was analyzed using GraphPad Prism v 7.04.
The D5D inhibitor dose-dependently led to weight loss over the course of the experiment (Table 17 and Table 18) compared to vehicle controls. Consistently fat mass was reduced, along with lower inguinal, epididymal and mesenteric white adipose tissue (WAT) weights at necropsy. Blood glucose and plasma insulin levels were both reduced by the D5D inhibitor, along with reductions in plasma cholesterol and triglycerides. Evidence of target engagement was established by observing increases in plasma DGLA and decreases in plasma AA.

[3] abbreviates: Example 45 3 mg/kg twice daily per os.
Where [4] appears, read: Example 45 10 mg/kg twice daily per os.

T2 sequence (O60427 whole entry, species assumed): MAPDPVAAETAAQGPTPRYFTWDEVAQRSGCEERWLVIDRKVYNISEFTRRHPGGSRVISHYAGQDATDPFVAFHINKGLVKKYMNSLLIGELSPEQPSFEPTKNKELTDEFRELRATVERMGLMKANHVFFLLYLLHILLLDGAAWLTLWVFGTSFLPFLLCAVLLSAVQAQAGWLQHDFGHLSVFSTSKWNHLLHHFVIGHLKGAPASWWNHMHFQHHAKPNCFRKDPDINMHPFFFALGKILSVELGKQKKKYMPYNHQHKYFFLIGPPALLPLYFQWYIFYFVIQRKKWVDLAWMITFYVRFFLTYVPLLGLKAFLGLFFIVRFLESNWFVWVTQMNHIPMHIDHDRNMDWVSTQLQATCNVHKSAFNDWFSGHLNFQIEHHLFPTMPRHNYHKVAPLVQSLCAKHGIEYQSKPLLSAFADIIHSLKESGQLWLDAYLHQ

As for `Cc1cn2c(=O)c(-c3cnn(CC(F)(F)C(F)(F)F)c3)c(C(F)(F)F)nc2n1C` [Example 52, 1,2-dimethyl-6-[1-(2,2,3,3,3-pentafluoropropyl)-1H-pyrazol-4-yl]-7-(trifluoromethyl)-1H,5H-imidazo[1,2-a]pyrimidin-5-one], at Delta-5-Desaturase (D5D), the “Average % D5D Inhibition expressed as Plasma Endogenous AA/DGLA Ratio” value stood at 74%. In addition, it took 47.5 nM to reach half-maximal inhibition in experiment [1] (IC50).

`Cn1c(Cl)cn2c(=O)c(-c3cnn(CC(F)(F)C(F)(F)F)c3)c(C(F)(F)F)nc12` [Example 48, 2-chloro-1-methyl-6-[1-(2,2,3,3,3-pentafluoropropyl)-1H-pyrazol-4-yl]-7-(trifluoromethyl)-1H,5H-imidazo[1,2-a]pyrimidin-5-one]: the “Average % D5D Inhibition expressed as Plasma Endogenous AA/DGLA Ratio” value at Delta-5-Desaturase (D5D) was 68%. The compound also gave an IC50 in experiment [1] of 6.8 nM.

`O=c1c(-c2cnn(CC(F)(F)C(F)(F)F)c2)c(C(F)(F)F)nc2sc(CO)nn12` [Example 45, 2-(hydroxymethyl)-6-[1-(2,2,3,3,3-pentafluoropropyl)-1H-pyrazol-4-yl]-7-(trifluoromethyl)-5H-[1,3,4]thiadiazolo[3,2-a]pyrimidin-5-one] gave a Food consumption in experiment [2] (Example 45 3 mg/kg twice daily per os, day 0, daily average) of 2.5 ± 0.3 g/day. In experiment [2] (Example 45 3 mg/kg twice daily per os, day 7, daily average), this compound displayed a Food consumption of 3.0 ± 0.3 g/day. In addition, the Food consumption in experiment [2] (Example 45 3 mg/kg twice daily per os, day 14, daily average) came to 2.7 ± 0.3 g/day. This compound also returned a Food consumption in experiment [2] (Example 45 3 mg/kg twice daily per os, day 21, daily average) of 2.7 ± 0.2 g/day. In experiment [2] (setting [3]), this compound registered a Fat mass of 19.7 ± 2.2 g, a Lean mass of 27.4 ± 1.5 g, a Blood glucose of 176.1 ± 9.4 mg/dL and an AA of 88.6 ± 18.9 µg/mL. For the same compound, in experiment [2] (setting [3]), the Cholesterol was found to be 160.4 ± 43.7 mg/dL, the DGLA amounted to 286.9 ± 47.7 µg/mL, the Insulin turned out to be 7.2 ± 1.8 ng/mL and the LDL cholesterol is on record as 130.6 ± 25.1 mg/dL. In experiment [2] (setting [3]), the Triglycerides amounted to 32.6 ± 5.2 mg/dL, the Body weight came out at 47.8 ± 2.8 g, the Liver weights is recorded as 2.6 ± 0.4 g and the “epididymal WAT” value is reported as 1.8 ± 0.3 g. Besides, in experiment [2] (setting [3]), the “inguinal WAT” value is 2.2 ± 0.5 g. In experiment [2] (Example 45 3 mg/kg twice daily per os, day 27, daily average), the Food consumption is given as 2.5 ± 0.2 g/day. The compound also displayed a Food consumption in experiment [2] (Example 45 10 mg/kg twice daily per os, day 0, daily average) of 2.6 ± 0.3 g/day. The compound further showed a Food consumption in experiment [2] (Example 45 10 mg/kg twice daily per os, day 7, daily average) of 2.6 ± 0.3 g/day. The compound also returned a Food consumption in experiment [2] (Example 45 10 mg/kg twice daily per os, day 14, daily average) of 2.4 ± 0.2 g/day. This compound also had a Food consumption in experiment [2] (Example 45 10 mg/kg twice daily per os, day 21, daily average) of 2.5 ± 0.2 g/day. In addition, in experiment [2] (setting [4]), the Fat mass was found to be 16.9 ± 2.3 g, the Lean mass worked out at 26.7 ± 1.1 g, the Blood glucose came to 156.1 mg/dL and the AA was determined as 38.2 ± 3.6 µg/mL. In addition, in experiment [2] (setting [4]), the Cholesterol was found to be 162.8 mg/dL, the DGLA was 212.6 µg/mL, the Insulin is 5.2 ± 0.7 ng/mL and the LDL cholesterol amounted to 129.0 mg/dL. In experiment [2] (setting [4]), the Triglycerides came out at 26.3 ± 5.5 mg/dL, the Body weight stood at 43.8 ± 3.1 g, the Liver weights worked out at 2.6 ± 0.5 g and the “epididymal WAT” value is given as 1.7 ± 0.3 g. In experiment [2] (setting [4]), the “inguinal WAT” value came to 1.9 ± 0.2 g. The Food consumption in experiment [2] (Example 45 10 mg/kg twice daily per os, day 27, daily average) turned out to be 2.4 ± 0.2 g/day. Besides, the IC50 in experiment [1] came to 21.1 nM.

In turn, `Cc1nn2c(=O)c(-c3ccc(OCC(F)(F)F)cc3)c(C(F)(F)F)nc2s1` [Example 40, 2-methyl-6-[4-(2,2,2-trifluoroethoxy)phenyl]-7-(trifluoromethyl)-5H-[1,3,4]thiadiazolo[3,2-a]pyrimidin-5-one] registered an IC50 in experiment [1] of 224 nM.

In experiment [1], `COc1nn2c(=O)c(-c3cnn(CC(F)(F)C(F)(F)F)c3)c(C(F)(F)F)nc2s1` [Example 43, 2-methoxy-6-[1-(2,2,3,3,3-pentafluoropropyl)-1H-pyrazol-4-yl]-7-(trifluoromethyl)-5H-[1,3,4]thiadiazolo[3,2-a]pyrimidin-5-one] displayed an IC50 of 34 nM.

As to `Cn1c(Cl)cn2c(=O)c(-c3cnn(CCC(F)(F)F)c3)c(C(F)(F)F)nc12` [Example 51, 2-chloro-1-methyl-7-(trifluoromethyl)-6-[1-(3,3,3-trifluoropropyl)-1H-pyrazol-4-yl]-1H,5H-imidazo[1,2-a]pyrimidin-5-one], in experiment [1], inhibition was half-maximal at 36.8 nM (IC50).
